# Experimental data: US20210278408A1, “METHODS OF TREATMENT OF CANCER WITH SUBSTITUTED PYRROLE AND PYRAZOLE COMPOUNDS AND DIAGNOSIS OF CANCERS SUSCEPTIBLE TO TREATMENT WITH SUBSTITUTED PYRROLE AND PYRAZOLE COMPOUNDS” (Bantam Pharmaceutical, LLC, priority 2018, published 2021)
# Tested on: 406 cancer cell lines, 73 blood tumor cell lines and 333 solid tumor cell lines
# Assay: OmniScreen drug efficacy on cancer cell lines, fitted area under curve (AUC) of dose-response
# Assay type: cell-based
# Design: AUCs: unit not given beside the values
# Procedure: Predictive biomarkers for genes indicating responsiveness to a therapeutic compound can be determined using a cell-based screening technique, such as that offered under the name OmniScreen™ (Crown Biosciences).
# In one experimental study, predictive biomarkers were determined for Compound A197 efficacy on 406 cancer cell lines, 73 blood tumor cell lines and 333 solid tumor cell lines. Genomic data for the cell lines was downloaded from the Cancer Cell Line Encyclopedia Project (CCLE) website. Driver mutations were predicted on the Cancer Genome Interpreter Database; only driver mutations were used in the mutation related analysis.
# Dose-response curves were fitted by the 4-parameter model:
# in which top and bottom are the two asymptotes of the sigmoidal curve, EC50 is the relative IC50, and concentration x is in log−10 scale. To accommodate experimental errors, Bottom was allowed to go down to −20%, and Top was allowed to go up to 120%. The fitting error of a model is measured by
# σECS0 is the standard error of EC50. In general, such fitting error should be less than 40% for a model to be considered acceptable. The fitted area under curve (AUC) is calculated by
# where a=log(3, 10) and b=log(30000,10).
smiles,measurement,setting,value
"Cc1nn(-c2nc(-c3ccc(C(F)(F)F)cc3)c(SC(C)C)s2)c(C(=O)O)c1-c1cccc(F)c1 [Compound A197, 4-(3-fluorophenyl)-1-(5-(isopropylthio)-4-(4-(trifluoromethyl)phenyl)thiazol-2-yl)-3-methyl-1H-pyrazole-5-carboxylic acid]",AUCs,"22Rv1, Prostate",2.52
same,AUCs,"8505C, H&N/Thyroid",3.78
same,AUCs,"A253, Submaxillary gland",3.32
same,AUCs,"A875, Skin",3.84
same,AUCs,"A2058, Skin",3.64
same,AUCs,"A2780, Ovary",2.43
same,AUCs,"A2780cis, Ovary",2.68
same,IC50,"A2780cis, Ovary",541 nM
same,AUCs,"A-172, Brain&Nerves",3.29
same,AUCs,"A-204, Muscle",3.66
same,AUCs,"A-375, Skin",3.42
same,AUCs,"A-427, Lung",3.59
same,AUCs,"A-431, Skin",2.96
same,AUCs,"A-673, Muscle",2.78
same,AUCs,"AGS, Stomach/Gastric",3.63
same,IC50,"AGS, Stomach/Gastric",205000 nM
same,AUCs,"AN3 CA, Uterus",3.88
same,AUCs,"ARH-77, Blood",3.22
same,AUCs,"ASH-3, H&N/Thyroid",3.41
same,responsiveness of blood tumor cell lines versus solid tumor cell lines,"AUC, Welch's t-test P-value 2.3e-16",more likely to be responsive
same,AUCs,"AsPC-1, Pancreas",3.59
same,AUCs,"BT-20, Breast",3.2
same,AUCs,"BT-483, Breast",3.43
same,AUCs,"BxPC-3, Pancreas",2.97
same,AUCs,"C4-2, Prostate",3.61
same,AUCs,"C666-1, Nose",3.15
same,AUCs,"C-33 A, Uterus",3.7
same,AUCs,"CAL-27, Tongue",3.17
same,AUCs,"CFPAC-1, Pancreas",3.56
same,AUCs,"COV644, Ovary",3.69
same,AUCs,"Ca Ski, Uterus",4.35
same,AUCs,"Caki-2, Kidney",3.53
same,AUCs,"Calu-6, Lung",3.21
same,AUCs,"Caov-3, Ovary",3.65
same,AUCs,"Capan-1, Pancreas",3.82
same,AUCs,"Capan-2, Pancreas",3.28
same,AUCs,"CoC1, Ovary",2.95
same,AUCs,"CoC1/DDP, Ovary",3.33
same,AUCs,"D283 Med, Brain&Nerves",3.28
same,AUCs,"DMS 79, Lung",4.09
same,AUCs,"DMS 114, Lung",3.56
same,AUCs,"DU 145, Prostate",2.99
same,AUCs,"DV-90, Lung",3.1
same,AUCs,"Daoy, Brain&Nerves",3.14
same,AUCs,"Detroit 562, Pharynx",3.54
same,AUCs,"DoTc2 4510, Uterus/Cervix",3.9
same,AUCs,"EBC-1, Lung",3.47
same,AUCs,"ES-2, Ovary",3.75
same,IC50,"ES-2, Ovary",70800 nM
same,AUCs,"FaDu, Pharynx",2.9
same,AUCs,"GTL-16, Stomach/Gastric",3.18
same,AUCs,"HCC 94, Uterus",2.92
same,IC50,"HCC 94, Uterus",806 nM
same,AUCs,"HCC1187, Breast",3.63
same,AUCs,"HCC1500, Breast",3.27
same,AUCs,"HCC1806, Breast",3.39
same,AUCs,"HCC1937, Breast",3.36
same,AUCs,"HCC1954, Breast",3.44
same,AUCs,"HCC2218, Breast",3.48
same,AUCs,"HCC2935, Lung",3.49
same,AUCs,"HCCC-9810, Liver",3.64
same,AUCs,"HCCLM3, Liver",3.87
same,AUCs,"HEC-1-A, Uterus",3.28
same,AUCs,"HEC-1-B, Uterus",2.85
same,AUCs,"HGC-27, Stomach/Gastric",2.39
same,AUCs,"HLE, Liver",3.3
same,AUCs,"HLF, Liver",3.43
same,AUCs,"HPAC, Pancreas",2.98
same,AUCs,"HT-3, Uterus/Cervix",3.91
same,IC50,"HT-3, Uterus/Cervix",30100 nM
same,AUCs,"HT-55, Large intestine/Colorectum",4
same,AUCs,"HT-1080, Soft tissue",3.07
same,AUCs,"HT-1376, Bladder",4.11
same,AUCs,"HUH-1, Liver",3.81
same,AUCs,"HeLa 229, Cervix",3.37
same,AUCs,"Hep3B, Liver",3.5
same,IC50,"Homo sapiens, 22Rv1, 22Rv1, Prostate",1090 nM
same,IC50,"Homo sapiens, A204, A-204, Muscle",184000 nM
same,IC50,"Homo sapiens, A673, A-673, Muscle",701 nM
same,IC50,"Homo sapiens, A2780, A2780, Ovary",863 nM
same,IC50,"Homo sapiens, A-375, A-375, Skin",28100 nM
same,IC50,"Homo sapiens, A-431, A-431, Skin",1110 nM
same,IC50,"Homo sapiens, AN3-CA, AN3 CA, Uterus",45600 nM
same,IC50,"Homo sapiens, BXPC-3, BxPC-3, Pancreas",351 nM
same,IC50,"Homo sapiens, C6661, C666-1, Nose",24600 nM
same,IC50,"Homo sapiens, CAL-27, CAL-27, Tongue",3420 nM
same,IC50,"Homo sapiens, Ca-Ski, Ca Ski, Uterus",41300 nM
same,IC50,"Homo sapiens, DMS-79, DMS 79, Lung",420000 nM
same,IC50,"Homo sapiens, DU-145, DU 145, Prostate",835 nM
same,IC50,"Homo sapiens, FaDu, Pharynx",341 nM
same,IC50,"Homo sapiens, HEC-1B, HEC-1-B, Uterus",438 nM
same,IC50,"Homo sapiens, HGC-27, HGC-27, Stomach/Gastric",513 nM
same,IC50,"Homo sapiens, HPAC, Pancreas",467 nM
same,IC50,"Homo sapiens, HT-1080, HT-1080, Soft tissue",990 nM
same,IC50,"Homo sapiens, HuTu80, Hutu 80, Small intestine/Duodenum",880 nM
same,IC50,"Homo sapiens, Ishikawa, Uterus",297 nM
same,IC50,"Homo sapiens, JEG-3, JEG-3, Placenta",993 nM
same,IC50,"Homo sapiens, LNCaP-Clone-FGC, LNCaP clone FGC, Prostate",172 nM
same,IC50,"Homo sapiens, ME-180, ME-180, Uterus",562 nM
same,IC50,"Homo sapiens, MES-SA, Uterus",480 nM
same,IC50,"Homo sapiens, MES-SA/Dx5, MES-SA/DX5, Uterus",342 nM
same,IC50,"Homo sapiens, MIA PaCa-2, MIA PaCa-2, Pancreas",2910 nM
same,IC50,"Homo sapiens, MKN-1, MKN1, Stomach/Gastric",5360 nM
same,IC50,"Homo sapiens, NCI-H146, NCI-H146, Lung",42600 nM
same,IC50,"Homo sapiens, NCI-H187, NCI-H187, Lung",8360 nM
same,IC50,"Homo sapiens, NCI-H226, NCI-H226, Lung",2230 nM
same,IC50,"Homo sapiens, NCI-H446, NCI-H446, Lung",30500 nM
same,IC50,"Homo sapiens, NCI-H526, NCI-H526, Lung",212000 nM
same,IC50,"Homo sapiens, NCI-H1648, NCI-H1648, Lung",72900 nM
same,IC50,"Homo sapiens, NCI-H2452, NCI-H2452, Lung",70800 nM
same,IC50,"Homo sapiens, NUGC-3, NUGC-3, Stomach/Gastric",26500 nM
same,IC50,"Homo sapiens, NUGC-4, NUGC-4, Stomach/Gastric",1350 nM
same,IC50,"Homo sapiens, OVCAR-8, OVCAR-8, Ovary",1020 nM
same,IC50,"Homo sapiens, PANC-1, PANC-1, Pancreas",2610 nM
same,IC50,"Homo sapiens, RL95-2, RL95-2, Uterus",416 nM
same,IC50,"Homo sapiens, RPMI-2650, RPMI-2650, Nose",843 nM
same,IC50,"Homo sapiens, SCC-4, SCC-4, Tongue",833000 nM
same,IC50,"Homo sapiens, SCC-9, SCC-9, Tongue",26100 nM
same,IC50,"Homo sapiens, SK-MEL-5, SK-MEL-5, Skin",75100 nM
same,IC50,"Homo sapiens, SK-MEL-28, SK-MEL-28, Skin",105000 nM
same,IC50,"Homo sapiens, SK-OV-3, SK-OV-3, Ovary",84900 nM
same,IC50,"Homo sapiens, SNU1, SNU-1, Stomach/Gastric",12600 nM
same,IC50,"Homo sapiens, SNU-5, SNU-5, Stomach/Gastric",1950 nM
same,IC50,"Homo sapiens, SW626, SW626, Ovary",415000 nM
same,IC50,"Homo sapiens, SW756, SW756, Ovary",37900 nM
same,IC50,"Homo sapiens, SW982, SW982, Soft tissue",66000 nM
same,IC50,"Homo sapiens, WM 266-4, WM-266-4, Skin",32400 nM
same,AUCs,"HuCCT1, Liver",3.24
same,AUCs,"Hutu 80, Small intestine/Duodenum",2.69
same,AUCs,"IM95m, Stomach/Gastric",2.9
same,IC50,"IM95m, Stomach/Gastric",601 nM
same,AUCs,"Ishikawa, Uterus",2.44
same,AUCs,"JAR, Placenta",2.57
same,IC50,"JAR, Placenta",673 nM
same,AUCs,"JEG-3, Placenta",3.2
same,AUCs,"JHH-5, Liver",3.56
same,AUCs,"JIMT-1, Breast",3.62
same,AUCs,"KATO III, Stomach/Gastric",3.2
